Source: the supplement of paper PMC10307832

Experiments:
Test in all cases: relative viability (nuclei count vs DMSO), 5 days (fraction); higher = more cells survive
NCI-H322M = test system: NCI-H322M
Procedure, shortened: (§1)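 Lung cancer cell lines, seeded in 1536-well plates, were treated the following day by pin tool with a single drug or with five library-drug doses (not always all listed) in √10 steps on top of a fixed anchor-drug dose. Cells were fixed and nuclei stained in one step after 5 days, and nuclei were counted. Relative viability is the nuclei count for treated wells divided by that for vehicle wells, reported as medians of duplicate plates.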

NCI-H520 = test system: NCI-H520
Procedure, shortened: as §1

NCI-H1755 = test system: NCI-H1755
Procedure, shortened: as §1

SK-MES-1 = test system: SK-MES-1
Procedure, shortened: as §1

NCI-H1651 = test system: NCI-H1651
Procedure, shortened: as §1

NCI-H2347 = test system: NCI-H2347
Procedure, shortened: as §1

LCLC-103H = test system: LCLC-103H
Procedure, shortened: as §1

NCI-H1915 = test system: NCI-H1915
Procedure, shortened: as §1

NCI-H727 = test system: NCI-H727
Procedure, shortened: as §1

SW 900 = test system: SW 900
Procedure, shortened: as §1

NCI-H522 = test system: NCI-H522
Procedure, shortened: as §1

NCI-H3122 = test system: NCI-H3122
Procedure, shortened: as §1

RERF-LC-KJ = test system: RERF-LC-KJ
Procedure, shortened: as §1

NCI-H441 = test system: NCI-H441
Procedure, shortened: as §1

NCI-H460 = test system: NCI-H460
Procedure, shortened: as §1

NCI-H661 = test system: NCI-H661
Procedure, shortened: as §1

NCI-H1355 = test system: NCI-H1355
Procedure, shortened: as §1

NCI-H596 = test system: NCI-H596
Procedure, shortened: as §1

PC-14 = test system: PC-14
Procedure, shortened: as §1

LXF-289 = test system: LXF-289
Procedure, shortened: as §1

Cc1sc2c(c1C)C(c1ccc(Cl)cc1)=N[C@@H](CC(=O)OC(C)(C)C)c1nnc(C)n1-2 [JQ1] + O=C(CCCCCCC(=O)Nc1ccccc1)NO [Vorinostat] (partner 1 µM)
relative viability (NCI-H322M; first compound 0.04 µM): 0.853
relative viability (NCI-H322M; first compound 0.1265 µM): 1.12
relative viability (NCI-H322M; first compound 0.4 µM): 0.687
relative viability (NCI-H322M; first compound 1.265 µM): 0.55
relative viability (NCI-H322M; first compound 4 µM): 0.465
relative viability (NCI-H520; first compound 0.04 µM): 0.658
relative viability (NCI-H520; first compound 0.1265 µM): 0.577
relative viability (NCI-H520; first compound 0.4 µM): 0.423
relative viability (NCI-H520; first compound 1.265 µM): 0.234
relative viability (NCI-H520; first compound 4 µM): 0.225
relative viability (NCI-H1755; first compound 0.04 µM): 0.822
relative viability (NCI-H1755; first compound 0.1265 µM): 0.579
relative viability (NCI-H1755; first compound 0.4 µM): 0.693
relative viability (NCI-H1755; first compound 1.265 µM): 0.651
relative viability (NCI-H1755; first compound 4 µM): 0.552
relative viability (SK-MES-1; first compound 0.04 µM): 1.1
relative viability (SK-MES-1; first compound 0.1265 µM): 0.813
relative viability (SK-MES-1; first compound 0.4 µM): 0.464
relative viability (SK-MES-1; first compound 1.265 µM): 0.32
relative viability (SK-MES-1; first compound 4 µM): 0.273
relative viability (NCI-H1651; first compound 0.04 µM): 0.615
relative viability (NCI-H1651; first compound 0.1265 µM): 0.472
relative viability (NCI-H1651; first compound 0.4 µM): 0.445
relative viability (NCI-H1651; first compound 1.265 µM): 0.416
relative viability (NCI-H1651; first compound 4 µM): 0.307
relative viability (NCI-H2347; first compound 0.04 µM): 0.615
relative viability (NCI-H2347; first compound 0.1265 µM): 0.521
relative viability (NCI-H2347; first compound 0.4 µM): 0.463
relative viability (NCI-H2347; first compound 1.265 µM): 0.282
relative viability (NCI-H2347; first compound 4 µM): 0.259
relative viability (LCLC-103H; first compound 0.04 µM): 0.832
relative viability (LCLC-103H; first compound 0.1265 µM): 0.536
relative viability (LCLC-103H; first compound 0.4 µM): 0.581
relative viability (LCLC-103H; first compound 1.265 µM): 0.455
relative viability (LCLC-103H; first compound 4 µM): 0.375
relative viability (NCI-H1915; first compound 0.04 µM): 0.508
relative viability (NCI-H1915; first compound 0.4 µM): 0.519
relative viability (NCI-H1915; first compound 1.265 µM): 0.299
relative viability (NCI-H1915; first compound 4 µM): 0.203
relative viability (NCI-H727; first compound 0.04 µM): 1.47
relative viability (NCI-H727; first compound 0.1265 µM): 1.14
relative viability (NCI-H727; first compound 0.4 µM): 0.954
relative viability (NCI-H727; first compound 1.265 µM): 1.08
relative viability (NCI-H727; first compound 4 µM): 0.621
relative viability (SW 900; first compound 0.04 µM): 0.448
relative viability (SW 900; first compound 0.1265 µM): 0.611
relative viability (SW 900; first compound 0.4 µM): 0.332
relative viability (SW 900; first compound 1.265 µM): 0.174
relative viability (SW 900; first compound 4 µM): 0.157
relative viability (NCI-H522; first compound 0.04 µM): 0.984
relative viability (NCI-H522; first compound 0.1265 µM): 0.71
relative viability (NCI-H522; first compound 0.4 µM): 0.737
relative viability (NCI-H522; first compound 1.265 µM): 0.497
relative viability (NCI-H522; first compound 4 µM): 0.368
relative viability (NCI-H3122; first compound 0.04 µM): 1.01
relative viability (NCI-H3122; first compound 0.1265 µM): 0.506
relative viability (NCI-H3122; first compound 0.4 µM): 1.02
relative viability (NCI-H3122; first compound 1.265 µM): 1.04
relative viability (NCI-H3122; first compound 4 µM): 0.664
relative viability (RERF-LC-KJ; first compound 0.04 µM): 0.68
relative viability (RERF-LC-KJ; first compound 0.1265 µM): 0.517
relative viability (RERF-LC-KJ; first compound 0.4 µM): 0.44
relative viability (RERF-LC-KJ; first compound 1.265 µM): 0.407
relative viability (RERF-LC-KJ; first compound 4 µM): 0.223
relative viability (NCI-H441; first compound 0.04 µM): 0.64
relative viability (NCI-H441; first compound 0.1265 µM): 0.943
relative viability (NCI-H441; first compound 0.4 µM): 0.886
relative viability (NCI-H441; first compound 1.265 µM): 0.303
relative viability (NCI-H441; first compound 4 µM): 0.199
relative viability (NCI-H460; first compound 0.04 µM): 0.672
relative viability (NCI-H460; first compound 0.1265 µM): 0.621
relative viability (NCI-H460; first compound 0.4 µM): 0.18
relative viability (NCI-H460; first compound 1.265 µM): 0.0632
relative viability (NCI-H460; first compound 4 µM): 0.0462
relative viability (NCI-H661; first compound 0.04 µM): 0.766
relative viability (NCI-H661; first compound 0.1265 µM): 0.809
relative viability (NCI-H661; first compound 0.4 µM): 0.677
relative viability (NCI-H661; first compound 1.265 µM): 0.493
relative viability (NCI-H661; first compound 4 µM): 0.456
relative viability (NCI-H1355; first compound 0.04 µM): 0.663
relative viability (NCI-H1355; first compound 0.1265 µM): 0.712
relative viability (NCI-H1355; first compound 0.4 µM): 0.541
relative viability (NCI-H1355; first compound 1.265 µM): 0.401
relative viability (NCI-H1355; first compound 4 µM): 0.281
relative viability (NCI-H596; first compound 0.04 µM): 0.683
relative viability (NCI-H596; first compound 0.1265 µM): 0.643
relative viability (NCI-H596; first compound 0.4 µM): 0.436
relative viability (NCI-H596; first compound 1.265 µM): 0.292
relative viability (NCI-H596; first compound 4 µM): 0.311
relative viability (PC-14; first compound 0.04 µM): 0.787
relative viability (PC-14; first compound 0.1265 µM): 0.564
relative viability (PC-14; first compound 0.4 µM): 0.44
relative viability (PC-14; first compound 1.265 µM): 0.203
relative viability (PC-14; first compound 4 µM): 0.16
relative viability (LXF-289; first compound 0.04 µM): 0.765
relative viability (LXF-289; first compound 0.1265 µM): 0.693
relative viability (LXF-289; first compound 0.4 µM): 0.665
relative viability (LXF-289; first compound 1.265 µM): 0.582
relative viability (LXF-289; first compound 4 µM): 0.577
